Results from patent US20250197442A1, “Peptide Synthesis in Aqueous Solution” (priority 2023, published 2025).

Conditions: for amount of Tween 80 required to dissolve the Fmoc protected amino acid, relative to its amount: aqueous solution, room temperature; for solubility in aqueous solutions: without the dissolving procedure
Procedure: A process for dissolving Fmoc-AA in Aqueous Solution was developed and it is summarized as follows (FIG. 9). Firstly, a non-ionic surfactant is dissolved in a small portion of a water-miscible organic solvent, creating Solution A. Secondly, FAA is dissolved in another small portion of a water-miscible organic solvent, creating Solution B. These two solutions, Solution A and Solution B, are thoroughly mixed to create a homogeneous mixture. This mixture is then added vigorously to an aqueous solvent.
To enable the utilization of Fmoc-AA as a building block in an aqueous solution, a specialized procedure has been developed to render Fmoc-AA soluble in aqueous solvents. The present invention devised a method to render Fmoc-AA soluble in water. First, none ionic surfactant is dissolved in a small amount of water-mixable organic solution, creating solution A, and then secondly, a Fmoc-AA is dissolved in a small amount of water-mixable organic solvent to create solution B, Solution A is thoroughly mixed with Solution B. The resulting mixture is then vigorously added to an aqueous solution. Fmoc-AA aqueous solution is obtained (FIG. 9),
4 grams of Tween 80 are added to 2 ml of DMSO to create solution A. and 1 grams of Fmoc-AA are added to 5 ml of DMSO to create solution B, solution A and solution B are mixed thoroughly, and then the resulting mixture is added to 88 ml of water to obtain a 1% concentration of Fmoc-AA in aqueous solution.
• Step 1: Dissolve 1.08 grams of Fmoc-Gly in 6.13 ml of DMSO solvent. Next, add 6.00 milliliters (mL) of a 70% Tween 80 in DMSO solution to the Fmoc-Gly DMSO solution. • Step 2: Pour this mixture into 87 mL of deionized (DI) water.
Dissolve 0.18 grams of Fmoc-Phe in 1.98 DMSO of solvent. Next, add 2.26 milliliters (mL) of a 70% Tween 80 in DMSO solution to Fmoc-Phe solution.
Transfer this mixture into 20.38 mL of deionized water.
Gradually, add 70% T dropwise until the solution becomes clear.
This process yields a solution containing 0.72% Fmoc-Phe in an aqueous solution with 10.80% DMSO.

SMILES | amount of Tween 80 required to dissolve the Fmoc protected amino acid, relative to its amount | solubility in aqueous solutions | effect of raising the temperature on solubility in aqueous solution (raised temperature)
O=C(O)CNC(=O)OCC1c2ccccc2-c2ccccc21 [Fmoc-Gly, Fmoc-Glycine] | approximately four times | poor solubility | 
O=C(N[C@@H](Cc1ccccc1)C(=O)O)OCC1c2ccccc2-c2ccccc21 [Fmoc-Phe, Fmoc-Phenylalanine] | approximately eight times | poor solubility | significantly increase the solubility
